Values quoted from earlier work, collected in US20090285869A1, “SALT STABLE LECITHIN ORGANOGEL COMPOSITION” (Humco Holding Group, Inc., priority 2008, published 2009).

details: non-ionic O/W and W/O emulsifiers; scale from 0 to 20

Q: For `CCCCCCCCCCCC(=O)OCC(O)CO` (stereo not drawn) [Glyceryl Laurate], which “Approximate HLB value” is on record?
A: ~5.2

Q: Which “Approximate HLB value” does the source give for `CCCCCCCC/C=C\CCCCCCCC(=O)OCC(O)CO` (stereo not drawn) [Glyceryl Oleate] here?
A: ~2.8

Q: For `CCCCCC[C@@H](O)C/C=C\CCCCCCCC(=O)OCC(O)CO` (stereo partly drawn) [Glyceryl Ricinoleate], which “Approximate HLB value” is on record?
A: ~2.6

Q: For `CCCCCCCCCCCCCCCCCC(=O)OCC(O)CO` (stereo not drawn) [Glyceryl Stearate], which “Approximate HLB value” is on record?
A: ~4.0

Q: Which “Approximate HLB value” does the source give for Ceteareth-6 here?
A: ~10.0

Q: Which “Approximate HLB value” does the source give for Ceteareth-12 here?
A: ~13.4

Q: Which “Approximate HLB value” does the source give for Ceteareth-20 here?
A: ~15.7

Q: Which “Approximate HLB value” does the source give for Ceteareth-25 here?
A: ~16.2

Q: For Glyceryl Dilaurate, which “Approximate HLB value” is on record?
A: ~4.0

Q: Which “Approximate HLB value” does the source give for Oleth-5 here?
A: ~9.0

Q: With Oleth-10 as the molecule, how does the “Approximate HLB value” read?
A: ~12.4

Q: With Oleth-20 as the molecule, how does the “Approximate HLB value” read?
A: ~15.5
